Source: US20230061736A1, “GPR119 AGONISTS” (Kallyope, Inc., priority 2019, published 2023)

Biological target: T1, human GPR119 (hGPR119) (Homo sapiens, UniProt Q8TDV5)
T1 construct: expressed in transfected cells
T1 sequence (Q8TDV5 1-335): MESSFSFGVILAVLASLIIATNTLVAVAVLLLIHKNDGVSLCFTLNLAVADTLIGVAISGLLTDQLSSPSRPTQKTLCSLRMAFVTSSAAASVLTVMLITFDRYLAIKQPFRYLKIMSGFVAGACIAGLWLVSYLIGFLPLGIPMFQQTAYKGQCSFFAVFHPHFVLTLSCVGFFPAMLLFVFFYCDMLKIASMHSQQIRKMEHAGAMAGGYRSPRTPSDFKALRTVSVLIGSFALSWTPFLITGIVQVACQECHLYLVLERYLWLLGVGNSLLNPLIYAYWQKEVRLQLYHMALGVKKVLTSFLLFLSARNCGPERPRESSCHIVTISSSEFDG
Test: cAMP accumulation assay (cAMP Gs dynamic HTRF kit)
Type: cell-based
Details: CHO-K1 cells stably expressing hGPR119, 4-parameter fit; for Emax: 1 h, % activity normalized to Max/Min controls; for EC50: cAMP accumulation
Method in brief: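 Read-out is HTRF 665/620 nm ratio after 1 h detection at ambient temperature, converted to % activity against positive and negative controls, EC50 and Max activity by 4-parameter fit. Compounds were titrated onto ~10,000 thawed hGPR119-CHO-K1 cells/well for 60 min at 37° C/5% CO2.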

Emax [%] | EC50 [nM] | Structure (SMILES)
50 to 100 | 100 to 1000 | O=C(Cc1ccc(COCCCC2CCN(c3ncc(Cl)cn3)CC2)cc1F)N1CC(CNC[C@H](O)[C@@H](O)[C@H](O)[C@H](O)CO)C1 [Example 90, 2-[4-[3-[1-(5-chloropyrimidin-2-yl)-4-piperidyl]propoxymethyl]-2-fluoro-phenyl]-1-[3-[[[(2S,3R,4R,5R)-2,3,4,5,6-pentahydroxyhexyl]amino]methyl]azetidin-1-yl]ethanone]
50 to 100 | 1000 to 10000 | CCc1cnc(N2CCC(CCOCc3ccc(CC(=O)N4CC(CNC[C@H](O)[C@@H](O)[C@H](O)[C@H](O)CO)C4)cc3F)CC2)nc1 [Example 89]
100 to 130 | 100 to 1000 | O=C(Cc1ccc(OCCC2CC23CCN(c2ncc(Cl)cn2)CC3)cc1F)N1CC(CNC[C@H](O)[C@@H](O)[C@H](O)[C@H](O)CO)C1 (stereo partly drawn) [Example 110, 2-[4-[2-[6-(5-chloropyrimidin-2-yl)-6-azaspiro[2.5]octan-2-yl]ethoxy]-2-fluoro-phenyl]-1-[3-[[[(2S,3R,4R,5R)-2,3,4,5,6-pentahydroxyhexyl]amino]methyl]azetidin-1-yl]ethanone]
100 to 130 | ≤ 100 | O=C(Cc1ccc(OCCCC2CC3(CCN(c4ncc(Cl)cn4)CC3)C2)cc1F)N1CC(CNC[C@H](O)[C@@H](O)[C@H](O)[C@H](O)CO)C1 [Example 105, 2-[4-[3-[7-(5-chloropyrimidin-2-yl)-7-azaspiro[3.5]nonan-2-yl]propoxy]-2-fluoro-phenyl]-1-[3-[[[(2S,3R,4R,5R)-2,3,4,5,6-pentahydroxyhexyl]amino]methyl]azetidin-1-yl]ethanone]
≥ 130 | ≤ 100 | CCOc1cnc(N2CCC(CCCOc3cc(F)c(CC(=O)N4CC[C@@H](CNCC(CO)(CO)CO)C4)c(F)c3)CC2)nc1 [Example 157, 2-[4-[3-[1-(5-ethoxypyrimidin-2-yl)-4-piperidyl]propoxy]-2,6-difluoro-phenyl]-1-[(3S)-3-[[[3-hydroxy-2,2-bis(hydroxymethyl)propyl]amino]methyl]pyrrolidin-1-yl]ethanone]
100 to 130 | ≤ 100 | O=C(Cc1c(F)cc(OCCCC2CCN(c3ncc(Cl)cn3)CC2)cc1F)N1CC[C@@H](CNCC(O)(CO)CO)C1 [Example 150, 2-[4-[3-[1-(5-chloropyrimidin-2-yl)-4-piperidyl]propoxy]-2,6-difluoro-phenyl]-1-[(3S)-3-[[[2,3-dihydroxy-2-(hydroxymethyl)propyl]amino]methyl]pyrrolidin-1-yl]ethanone]
≥ 130 | 100 to 1000 | O=C(Cc1ccc(OCCCC2CCN(c3ncc(Cl)cn3)CC2)cc1F)NCCC(=O)NC(CO)(CO)CO [Example 20, 3-[[2-[4-[3-[1-(5-chloropyrimidin-2-yl)-4-piperidyl]propoxy]-2-fluoro-phenyl]acetyl]amino]-N-[2-hydroxy-1,1-bis(hydroxymethyl)ethyl]propanamide]
≥ 130 | 100 to 1000 | CC[N+](CC)(CC)CCCCCNC(=O)Cc1ccc(OCCCC2CCN(c3ncc(Cl)cn3)CC2)cc1F [Example 2, 5-[[2-[4-[3-[1-(5-chloropyrimidin-2-yl)-4-piperidyl]propoxy]-2-fluoro-phenyl]acetyl]amino]pentyl-triethyl-ammonium]
≥ 130 | 100 to 1000 | O=C(Cc1ccc(OCCCC2CCN(c3ncc(Cl)cn3)CC2)cc1F)NCCCCCNC(CO)CO [Example 1, 2-[4-[3-[1-(5-chloropyrimidin-2-yl)-4-piperidyl]propoxy]-2-fluoro-phenyl]-N-[5-[[2-hydroxy-1-(hydroxymethyl)ethyl]amino]pentyl]acetamide]
50 to 100 | 1000 to 10000 | O=C(Cc1ccc(OCCCC2CCN(c3ncc(CO)cn3)CC2)cc1F)N1CC(CNC[C@H](O)[C@@H](O)[C@H](O)[C@H](O)CO)C1 [Example 93, 2-[2-fluoro-4-[3-[1-[5-(hydroxymethyl)pyrimidin-2-yl]-4-piperidyl]propoxy]phenyl]-1-[3-[[[(2S,3R,4R,5R)-2,3,4,5,6-pentahydroxyhexyl]amino]methyl]azetidin-1-yl]ethanone]
100 to 130 | 100 to 1000 | O=C(Cc1ccc(OCCCC2CCN(c3ncc(Cl)cn3)CC2)cc1F)NCCO[C@H]1O[C@H](CO)[C@@H](O)[C@H](O)[C@@H]1O (racemic) [Example 16, 2-[4-[3-[1-(5-chloropyrimidin-2-yl)-4-piperidyl]propoxy]-2-fluoro-phenyl]-N-[2-[rac-(2S,3S,4S,5S,6R)-3,4,5-trihydroxy-6-(hydroxymethyl)tetrahydropyran-2-yl]oxyethyl]acetamide]
50 to 100 | ≤ 100 | O=C(Cc1ccc(OCCCC2CCN(c3ncc(Cl)cn3)CC2)cc1F)N1CC(CNCCOCCOCCO)C1 [Example 51, 2-[4-[3-[1-(5-chloropyrimidin-2-yl)-4-piperidyl]propoxy]-2-fluoro-phenyl]-1-[3-[[2-[2-(2-hydroxyethoxy)ethoxy]ethylamino]methyl]azetidin-1-yl]ethanone]
100 to 130 | ≤ 100 | CCOc1cnc(N2CCC(CCCOc3cc(F)c(CC(=O)N4CC[C@H](C(=O)NC[C@H](O)[C@@H](O)[C@H](O)[C@H](O)CO)C4)c(F)c3)CC2)nc1 [Example 130, (3S)-1-[2-[4-[3-[1-(5-ethoxypyrimidin-2-yl)-4-piperidyl]propoxy]-2,6-difluoro-phenyl]acetyl]-N-[(2S,3R,4R,5R)-2,3,4,5,6-pentahydroxyhexyl]pyrrolidine-3-carboxamide]
100 to 130 | ≤ 100 | O=C(Cc1ccc(OCCCC2CCN(c3ncc(Cl)cn3)CC2)cc1F)N1CC(CNCC(O)(CO)CO)C1 [Example 43, 2-[4-[3-[1-(5-chloropyrimidin-2-yl)-4-piperidyl]propoxy]-2-fluoro-phenyl]-1-[3-[[[2,3-dihydroxy-2-(hydroxymethyl)propyl]amino]methyl]azetidin-1-yl]ethanone]
100 to 130 | 100 to 1000 | CCc1cnc(N2CCC(CCCOc3ccc(CC(=O)NCCC[N+](C)(C)C)c(F)c3)CC2)nc1 [Example 15, 3-[[2-[4-[3-[1-(5-ethylpyrimidin-2-yl)-4-piperidyl]propoxy]-2-fluoro-phenyl]acetyl]amino]propyl-trimethyl-ammonium]
100 to 130 | ≤ 100 | O=C(NCC(O)(CO)CO)C1CN(C(=O)Cc2ccc(OCCCC3CCN(c4ncc(Cl)cn4)CC3)cc2F)C1 [Example 30, 1-[2-[4-[3-[1-(5-chloropyrimidin-2-yl)-4-piperidyl]propoxy]-2-fluoro-phenyl]acetyl]-N-[2,3-dihydroxy-2-(hydroxymethyl)propyl]azetidine-3-carboxamide]
< 50 | > 10000 | CC(C)OC(=O)N1CCC2(CCC2CCOc2ccc(CC(=O)N3CC(CNC[C@H](O)[C@@H](O)[C@H](O)[C@H](O)CO)C3)c(F)c2)CC1 (stereo partly drawn) [Example 140, isopropyl 3-[2-[3-fluoro-4-[2-oxo-2-[3-[[[(2S,3R,4R,5R)-2,3,4,5,6-pentahydroxyhexyl]amino]methyl]azetidin-1-yl]ethyl]phenoxy]ethyl]-7-azaspiro[3.5]nonane-7-carboxylate]
≥ 130 | ≤ 100 | O=C(Cc1c(F)cc(OCCCC2CCN(c3ncc(Cl)cn3)CC2)cc1F)N1CC(CNC[C@H](O)[C@@H](O)[C@H](O)[C@H](O)CO)C1 [Example 53, 2-[4-[3-[1-(5-chloropyrimidin-2-yl)-4-piperidyl]propoxy]-2,6-difluoro-phenyl]-1-[3-[[[(2S,3R,4R,5R)-2,3,4,5,6-pentahydroxyhexyl]amino]methyl]azetidin-1-yl]ethanone]
100 to 130 | ≤ 100 | O=C(Cc1c(F)cc(OCCC2CC(C3CCN(c4ncc(Cl)cn4)CC3)C2)cc1F)N1CC(CNC[C@H](O)[C@@H](O)[C@H](O)[C@H](O)CO)C1 (stereo partly drawn) [Example 124, 2-[4-[2-[3-[1-(5-chloropyrimidin-2-yl)-4-piperidyl]cyclobutyl]ethoxy]-2,6-difluoro-phenyl]-1-[3-[[[(2S,3R,4R,5R)-2,3,4,5,6-pentahydroxyhexyl]amino]methyl]azetidin-1-yl]ethanone]
100 to 130 | ≤ 100 | CCOc1cnc(N2CCC(CCCOc3cc(F)c(CC(=O)N4CCC(O)(CNCC(CO)(CO)CO)C4)c(F)c3)CC2)nc1 (stereo not shown) [Example 189, 2-[4-[3-[1-(5-ethoxypyrimidin-2-yl)-4-piperidyl]propoxy]-2,6-difluoro-phenyl]-1-[3-hydroxy-3-[[[3-hydroxy-2,2-bis(hydroxymethyl)propyl]amino]methyl]pyrrolidin-1-yl]ethanone]
≥ 130 | 100 to 1000 | CCc1cnc(N2CCC(CCCOc3ccc(CC(=O)N4CC(CNCC(CO)CO)C4)c(F)c3)CC2)nc1 [Example 62, 2-(4-(3-(1-(5-ethylpyrimidin-2-yl)piperidin-4-yl)propoxy)-2-fluorophenyl)-1-(3-(((3-hydroxy-2-(hydroxymethyl)propyl)amino)methyl)azetidin-1-yl)ethan-1-one]
100 to 130 | 1000 to 10000 | O=C(Cc1ccc(COCC2CC3(CCN(c4ncc(Cl)cn4)CC3)C2)cc1F)N1CC(CNC[C@H](O)[C@@H](O)[C@H](O)[C@H](O)CO)C1 [Example 107]
100 to 130 | 100 to 1000 | O=C(NC(CO)CO)C1CN(C(=O)Cc2ccc(OCCCC3CCN(c4ncc(Cl)cn4)CC3)cc2F)C1 [Example 28, 1-[2-[4-[3-[1-(5-chloropyrimidin-2-yl)-4-piperidyl]propoxy]-2-fluoro-phenyl]acetyl]-N-[2-hydroxy-1-(hydroxymethyl)ethyl]azetidine-3-carboxamide]
